# Reference: ChEMBL document CHEMBL3797052 (Eur J Med Chem, 2016)
# Tests used:
# Format in all cases: functional
# [1] = Antiproliferative activity against human SNB19 cells assessed as cell growth at 10^-5 M after 48 hrs by sulforhodamine B assay; conditions: SNB-19, 48 h, read-out: Activity
# [2] = Antiproliferative activity against human HCT116 cells assessed as cell growth at 10^-5 M after 48 hrs by sulforhodamine B assay; conditions: HCT-116, 48 h, read-out: Activity
# [3] = Antiproliferative activity against human SF295 cells assessed as cell growth at 10^-5 M after 48 hrs by sulforhodamine B assay; conditions: SF-295, 48 h, read-out: Activity
# [4] = Antiproliferative activity against human UO31 cells assessed as cell growth at 10^-5 M after 48 hrs by sulforhodamine B assay; conditions: UO-31, 48 h, read-out: Activity
# NCI-H226 = assay: Antiproliferative activity against human NCI-H226 cells assessed as cell growth at 10^-5 M after 48 hrs by sulforhodamine B assay; conditions: NCI-H226, 48 h, read-out: Activity
# NCI-H460 = assay: Antiproliferative activity against human NCI-H460 cells assessed as cell growth at 10^-5 M after 48 hrs by sulforhodamine B assay; conditions: NCI-H460, 48 h, read-out: Activity
# [5] = Antiproliferative activity against human MOLT4 cells assessed as cell growth at 10^-5 M after 48 hrs by sulforhodamine B assay; conditions: MOLT-4, 48 h, read-out: Activity
# [6] = Antiproliferative activity against human UACC257 cells assessed as cell growth at 10^-5 M after 48 hrs by sulforhodamine B assay; conditions: UACC-257, 48 h, read-out: Activity
# [7] = Antiproliferative activity against human UACC62 cells assessed as cell growth at 10^-5 M after 48 hrs by sulforhodamine B assay; conditions: UACC-62, 48 h, read-out: Activity
# MDA-MB-231 = assay: Antiproliferative activity against human MDA-MB-231 cells assessed as cell growth at 10^-5 M after 48 hrs by sulforhodamine B assay; conditions: MDA-MB-231, 48 h, read-out: Activity
# MDA-MB-468 = assay: Antiproliferative activity against human MDA-MB-468 cells assessed as cell growth at 10^-5 M after 48 hrs by sulforhodamine B assay; conditions: MDA-MB-468, 48 h, read-out: Activity
# SN12C = assay: Antiproliferative activity against human SN12C cells assessed as cell growth at 10^-5 M after 48 hrs by sulforhodamine B assay; conditions: read-out: Activity
# 786-0 = assay: Antiproliferative activity against human 786-0 cells assessed as cell growth at 10^-5 M after 48 hrs by sulforhodamine B assay; conditions: 786-0, 48 h, read-out: Activity
# [8] = Antiproliferative activity against human HCC2998 cells assessed as cell growth at 10^-5 M after 48 hrs by sulforhodamine B assay; conditions: HCC 2998, 48 h, read-out: Activity
# [9] = Cytotoxicity against human SKBR3 cells assessed as growth inhibition at 100 uM after 2 days by MTT assay; conditions: SK-BR-3, 48 h, read-out: GI
# Malme-3M = assay: Antiproliferative activity against human MALME-3M cells assessed as cell growth at 10^-5 M after 48 hrs by sulforhodamine B assay; conditions: read-out: Activity
# A498 = assay: Antiproliferative activity against human A498 cells assessed as cell growth at 10^-5 M after 48 hrs by sulforhodamine B assay; conditions: A498, 48 h, read-out: Activity
# [10] = Antiproliferative activity against human BT549 cells assessed as cell growth at 10^-5 M after 48 hrs by sulforhodamine B assay; conditions: BT-549, 48 h, read-out: Activity
# [11] = Antiproliferative activity against human DU145 cells assessed as cell growth at 10^-5 M after 48 hrs by sulforhodamine B assay; conditions: DU-145, 48 h, read-out: Activity
# SK-MEL-5 = assay: Antiproliferative activity against human SK-MEL-5 cells assessed as cell growth at 10^-5 M after 48 hrs by sulforhodamine B assay; conditions: SK-MEL-5, 48 h, read-out: Activity
# [12] = Cytotoxicity against human SKBR3 cells assessed as growth inhibition at 10 uM after 2 days by MTT assay; conditions: SK-BR-3, 48 h, read-out: GI
# [13] = Antiproliferative activity against human HL-60(TB) cells assessed as cell growth at 10^-5 M after 48 hrs by sulforhodamine B assay; conditions: HL-60, 48 h, read-out: Activity
# [14] = Antiproliferative activity against human IGROV1 cells assessed as cell growth at 10^-5 M after 48 hrs by sulforhodamine B assay; conditions: IGROV-1, 48 h, read-out: Activity
# EKVX = assay: Antiproliferative activity against human EKVX cells assessed as cell growth at 10^-5 M after 48 hrs by sulforhodamine B assay; conditions: read-out: Activity
# M14 = assay: Antiproliferative activity against human M14 cells assessed as cell growth at 10^-5 M after 48 hrs by sulforhodamine B assay; conditions: M14, 48 h, read-out: Activity
# [15] = Antiproliferative activity against human SNB75 cells assessed as cell growth at 10^-5 M after 48 hrs by sulforhodamine B assay; conditions: SNB-75, 48 h, read-out: Activity
# HT-29 = assay: Antiproliferative activity against human HT-29 cells assessed as cell growth at 10^-5 M after 48 hrs by sulforhodamine B assay; conditions: HT-29, 48 h, read-out: Activity
# K562 = assay: Antiproliferative activity against human K562 cells assessed as cell growth at 10^-5 M after 48 hrs by sulforhodamine B assay; conditions: K562, 48 h, read-out: Activity
# ACHN = assay: Antiproliferative activity against human ACHN cells assessed as cell growth at 10^-5 M after 48 hrs by sulforhodamine B assay; conditions: read-out: Activity
# [16] = Cytotoxicity against human HCT116 cells assessed as growth inhibition at 10 uM after 2 days by MTT assay; conditions: HCT-116, 48 h, read-out: GI
# [17] = Cytotoxicity against human HCT116 cells assessed as growth inhibition at 100 uM after 2 days by MTT assay; conditions: HCT-116, 48 h, read-out: GI
# NCI-H23 = assay: Antiproliferative activity against human NCI-H23 cells assessed as cell growth at 10^-5 M after 48 hrs by sulforhodamine B assay; conditions: NCI-H23, 48 h, read-out: Activity
# SR = assay: Antiproliferative activity against human SR cells assessed as cell growth at 10^-5 M after 48 hrs by sulforhodamine B assay; conditions: read-out: Activity
# A549 = assay: Antiproliferative activity against human A549/ATCC cells assessed as cell growth at 10^-5 M after 48 hrs by sulforhodamine B assay; conditions: A549, 48 h, read-out: Activity
# [18] = Antiproliferative activity against human COLO205 cells assessed as cell growth at 10^-5 M after 48 hrs by sulforhodamine B assay; conditions: COLO 205, 48 h, read-out: Activity
# CCRF-CEM = assay: Antiproliferative activity against human CCRF-CEM cells assessed as cell growth at 10^-5 M after 48 hrs by sulforhodamine B assay; conditions: read-out: Activity
# [19] = Antiproliferative activity against human OVCAR5 cells assessed as cell growth at 10^-5 M after 48 hrs by sulforhodamine B assay; conditions: OVCAR-5, 48 h, read-out: Activity
Structure (SMILES),growth at 10 µM [1],growth at 10 µM [2],growth at 10 µM [3],growth at 10 µM [4],growth at 10 µM (NCI-H226),growth at 10 µM (NCI-H460),growth at 10 µM [5],growth at 10 µM [6],growth at 10 µM [7],growth at 10 µM (MDA-MB-231),growth at 10 µM (MDA-MB-468),growth at 10 µM (SN12C),growth at 10 µM (786-0),growth at 10 µM [8],inhibition of growth at 100 µM [9],growth at 10 µM (Malme-3M),growth at 10 µM (A498),growth at 10 µM [10],growth at 10 µM [11],growth at 10 µM (SK-MEL-5),also measured
CNC(=O)c1cc(Oc2ccc3nc(NC(=O)c4ccc5c(c4)OCCO5)sc3c2)ccn1,101%,89.6%,99.7%,94.7%,99.6%,104%,94.7%,95%,102%,101%,108%,107%,97.3%,103%,62.3%,92.5%,95.1%,89.8%,98.5%,95.8%,inhibition of growth at 10 µM [12]: 50.7%; growth at 10 µM [13]: 93.7%; growth at 10 µM [14]: 99.5%; growth at 10 µM (EKVX): 99%; growth at 10 µM (M14): 100%; growth at 10 µM [15]: 95.8%; growth at 10 µM (HT-29): 71.3%; growth at 10 µM (K562): 91.2%; growth at 10 µM (ACHN): 106%; inhibition of growth at 10 µM [16]: 10.5%; inhibition of growth at 100 µM [17]: 49.9%; growth at 10 µM (NCI-H23): 90%; growth at 10 µM (SR): 88.3%; growth at 10 µM (A549): 98.8%; growth at 10 µM [18]: 103%; growth at 10 µM (CCRF-CEM): 98.4%; growth at 10 µM [19]: 99.1%
CNC(=O)c1cc(Oc2ccc3nc(NC(=O)c4ccc5ncccc5c4)sc3c2)ccn1,95.1%,103%,86.9%,77%,68.6%,98.6%,94.2%,93.1%,94.9%,98.6%,73.7%,92.6%,98.4%,106%,29.6%,80.5%,88.3%,82.3%,105%,86.4%,inhibition of growth at 10 µM [12]: 17.1%; growth at 10 µM [13]: 87.5%; growth at 10 µM [14]: 93.3%; growth at 10 µM (EKVX): 87.5%; growth at 10 µM (M14): 102%; growth at 10 µM [15]: 86.5%; growth at 10 µM (HT-29): 69.9%; growth at 10 µM (K562): 93.7%; growth at 10 µM (ACHN): 102%; inhibition of growth at 10 µM [16]: 22.5%; inhibition of growth at 100 µM [17]: 72.3%; growth at 10 µM (NCI-H23): 92.7%; growth at 10 µM (SR): 88.8%; growth at 10 µM (A549): 76.5%; growth at 10 µM [18]: 95.8%; growth at 10 µM (CCRF-CEM): 91%; growth at 10 µM [19]: 106%
CNC(=O)c1cc(Oc2ccc3nc(NC(=O)Nc4ccc(C(F)(F)F)cc4)sc3c2)ccn1,79.3%,7.67%,63.2%,65%,85.6%,33.4%,73.3%,86.7%,56%,63.5%,49.9%,71.2%,35.5%,104%,79.6%,20.8%,98.8%,62.3%,48.9%,56.9%,inhibition of growth at 10 µM [12]: 69.9%; growth at 10 µM [13]: 120%; growth at 10 µM [14]: 70.9%; growth at 10 µM (EKVX): 53.5%; growth at 10 µM (M14): 35.8%; growth at 10 µM [15]: 29.1%; growth at 10 µM (HT-29): 78.4%; growth at 10 µM (K562): 76.3%; growth at 10 µM (ACHN): 73.4%; inhibition of growth at 10 µM [16]: 64.8%; inhibition of growth at 100 µM [17]: 74.9%; growth at 10 µM (NCI-H23): 63.4%; growth at 10 µM (SR): 70.6%; growth at 10 µM (A549): 1.79%; growth at 10 µM [18]: 58.8%; growth at 10 µM (CCRF-CEM): 68.1%; growth at 10 µM [19]: 93.9%
CNC(=O)c1cc(Oc2ccc3nc(NC(=O)c4cccc(F)n4)sc3c2)ccn1,88.6%,80.5%,89.1%,67.1%,76.3%,89.5%,80.8%,80.3%,78%,86%,71.3%,84.9%,86%,114%,89.4%,98.2%,72.6%,74.6%,99.2%,71.8%,inhibition of growth at 10 µM [12]: 12.5%; growth at 10 µM [13]: 78.2%; growth at 10 µM [14]: 101%; growth at 10 µM (EKVX): 90%; growth at 10 µM (M14): 91.8%; growth at 10 µM [15]: 105%; growth at 10 µM (HT-29): 96%; growth at 10 µM (K562): 77.5%; growth at 10 µM (ACHN): 94.5%; inhibition of growth at 10 µM [16]: 10.8%; inhibition of growth at 100 µM [17]: 55.5%; growth at 10 µM (NCI-H23): 83%; growth at 10 µM (SR): 55.9%; growth at 10 µM (A549): 75.2%; growth at 10 µM [18]: 105%; growth at 10 µM (CCRF-CEM): 64.7%; growth at 10 µM [19]: 128%
CNC(=O)c1cc(Oc2ccc3nc(NC(=O)Nc4ccc(F)cc4F)sc3c2)ccn1,71.1%,20.7%,76.7%,91.4%,52.8%,63%,82.4%,74.3%,65.1%,47.6%,51.2%,69.2%,64%,88.1%,79.5%,46.2%,10.9%,100%,65.7%,39%,inhibition of growth at 10 µM [12]: 61.6%; growth at 10 µM [13]: 98.3%; growth at 10 µM [14]: 84.2%; growth at 10 µM (EKVX): 89.8%; growth at 10 µM (M14): 69.1%; growth at 10 µM [15]: 19.2%; growth at 10 µM (HT-29): 58.8%; growth at 10 µM (K562): 71.5%; growth at 10 µM (ACHN): 60.6%; inhibition of growth at 10 µM [16]: 56.9%; inhibition of growth at 100 µM [17]: 86.3%; growth at 10 µM (NCI-H23): 47%; growth at 10 µM (SR): 80.4%; growth at 10 µM (A549): 44.8%; growth at 10 µM [18]: 87.1%; growth at 10 µM (CCRF-CEM): 89.7%; growth at 10 µM [19]: 95.2%
